This is an account of results in patent publication US20240228555A9, “ANTIMICROBIAL PEPTIDOMIMETICS” (Basilea Pharmaceutica International AG, Allschwil, priority 2020, published 2024).

The subject of series [1] is Escherichia coli ATCC 25922. The note with it: ATCC 25922. The method in brief:
(§1)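 Two-fold serial dilutions of peptide, in water with polysorbate 80 (0.002% final), met bacteria adjusted to 0.5 McFarland then diluted to about 5×10^5 CFU/mL. Medium was cation-adjusted Mueller-Hinton II broth; peptide stocks were 1 mg/mL in sterile water.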

The subject of series [2] is Escherichia coli MCR-1 Af 45. The following applies: Mueller-Hinton broth II, no visible growth after 18-20 hours at 35° C. The method in brief:
as §1

Series [3] relates to Klebsiella pneumoniae SSI3010. The note with it: SSI3010. The method in brief: as §1
In series [4] the test system is human red blood cells (hRBC). The class given is cell-based. The following applies: red cells of human, 1 h, 0.2 g/L. In a few lines: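 PBS-washed human erythrocytes (20% v/v) were incubated with compounds at 200 μg/mL for 1 h at 37° C with shaking. Supernatant OD540 was read after 8-fold dilution; hemolysis % = OD540 peptide / OD540 of the 100% lysis control (2.5% Triton X-100 in H2O) ×100, with PBS as 0%.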

The structures appear in SMILES notation. Where a SMILES comes first, the peptide text is derived from it. Bounds are passed on as bounds.

Consider `CC[C@H](C)[C@H](NC(=O)[C@@H](NC(=O)[C@@H]1C[C@@H](O)CN1C(=O)[C@@H](N)C(C)C)[C@@H](C)CC)C(=O)N[C@@H](Cc1ccc(O)cc1)C(=O)N[C@@H]1C(=O)N[C@@H](CC(N)=O)C(=O)N[C@@H](CCCNC(=N)N)C(=O)N[C@@H](CCN)C(=O)N[C@@H]([C@@H](C)O)C(=O)N[C@H](CCN)C(=O)N[C@@H](CO)C(=O)N[C@H](C(=O)N[C@@H](CCN)C(=O)N[C@@H](CCCNC(=N)N)C(=O)N[C@@H](Cc2ccc(O)cc2)C(=O)O)CSSC1(C)C` [Example 101, Val-Hyp-Ile-Ile-Tyr-Pen-Asn-Arg-Dab-Thr-^DDab-Cys-Dab-Arg-Tyr], for which the “Escherichia coli ATCC 25922 MIC” value in series [1] is 0.125 mg/L. The “Escherichia coli MCR-1 Af 45 MIC” value in series [2] worked out at 0.125 mg/L. Further, the “Klebsiella pneumoniae SSI3010 MIC” value in series [3] is 0.25 mg/L. The “Hemolysis at 0.2 g/L” value in series [4] is recorded as below 1%.

With `CC[C@H](C)[C@H](NC(=O)[C@@H]1C[C@@H](N)CN1C(=O)[C@@H](N)C(C)C)C(=O)N[C@H](C(=O)N[C@@H](Cc1ccc(O)cc1)C(=O)N[C@@H]1C(=O)N[C@@H](CC(N)=O)C(=O)N[C@@H](CCCNC(=N)N)C(=O)N[C@@H](CCN)C(=O)N[C@@H]([C@@H](C)O)C(=O)N[C@H](CCN)C(=O)N[C@@H](CCCNC(N)=O)C(=O)N[C@H](C(=O)N[C@@H](CCN)C(=O)N[C@@H](CO)C(=O)N[C@@H](Cc2ccc(O)cc2)C(=O)O)CSSC1(C)C)[C@@H](C)O` [Example 102, Val-Pro((4R)NH2)-Ile-Thr-Tyr-Pen-Asn-Arg-Dab-Thr-^DDab-Cit-Cys-Dab-Ser-Tyr] (HELM PEPTIDE1{V.[N[C@@H]1C[C@@H](C(=O)[*:2])N([*:1])C1].I.T.Y.[Pen].N.R.[Dab].T.[NCC[C@@H](N[*:1])C(=O)[*:2]].[Cit].C.[Dab].S.Y}$PEPTIDE1,PEPTIDE1,6:R3-13:R3$$$V2.0), the “Escherichia coli ATCC 25922 MIC” value in series [1] turned out to be 0.25 mg/L. The “Escherichia coli MCR-1 Af 45 MIC” value in series [2] is on record as 0.125 mg/L. Also, the “Klebsiella pneumoniae SSI3010 MIC” value in series [3] is given as 0.25 mg/L. The “Hemolysis at 0.2 g/L” value in series [4] is below 1%.

`CC[C@H](C)[C@H](NC(=O)[C@@H]1C[C@@H](N)CN1C(=O)[C@@H](N)C(C)C)C(=O)N[C@H](C(=O)N[C@@H](Cc1ccc(O)cc1)C(=O)N[C@@H]1C(=O)N[C@@H](CC(N)=O)C(=O)N[C@@H](CCCNC(=N)N)C(=O)N[C@@H](CCN)C(=O)N[C@@H]([C@@H](C)O)C(=O)N[C@H](CCN)C(=O)N[C@@H](CCCCN)C(=O)N[C@H](C(=O)N[C@@H](CO)C(=O)N[C@@H](CO)C(=O)N[C@@H](Cc2ccc(O)cc2)C(=O)O)CSSC1(C)C)[C@@H](C)O` [Example 103, Val-Pro((4R)NH2)-Ile-Thr-Tyr-Pen-Asn-Arg-Dab-Thr-^DDab-Lys-Cys-Ser-Ser-Tyr] (HELM PEPTIDE1{V.[N[C@@H]1C[C@@H](C(=O)[*:2])N([*:1])C1].I.T.Y.[Pen].N.R.[Dab].T.[NCC[C@@H](N[*:1])C(=O)[*:2]].K.C.S.S.Y}$PEPTIDE1,PEPTIDE1,6:R3-13:R3$$$V2.0): the “Escherichia coli ATCC 25922 MIC” value in series [1] worked out at 0.5 mg/L. Moreover, the “Escherichia coli MCR-1 Af 45 MIC” value in series [2] is 0.125 mg/L. Besides, the “Klebsiella pneumoniae SSI3010 MIC” value in series [3] came out at 0.5 mg/L. Besides, the “Hemolysis at 0.2 g/L” value in series [4] is below 1%.

`CC[C@H](C)[C@@H]1NC(=O)[C@@H](NC(=O)[C@H](Cc2ccc(O)cc2)NC(=O)[C@@H](NC(=O)[C@@H](NC(=O)[C@@H]2C[C@@H](O)CN2C(=O)[C@@H](N)C(C)C)[C@@H](C)CC)[C@@H](C)O)C(C)(C)SSC[C@@H](C(=O)N[C@@H](CO)C(=O)N[C@@H](CCCNC(=N)N)C(=O)N[C@@H](Cc2ccc(O)cc2)C(=O)O)NC(=O)[C@H](CCCCN)NC(=O)[C@@H](CCN)NC(=O)[C@H]([C@@H](C)O)NC(=O)[C@H](CCN)NC(=O)[C@H](CCCNC(=N)N)NC1=O` [Example 104, Val-Hyp-Ile-Thr-Tyr-Pen-Ile-Arg-Dab-Thr-^DDab-Lys-Cys-Ser-Arg-Tyr] (HELM PEPTIDE1{V.[Hyp].I.T.Y.[Pen].I.R.[Dab].T.[NCC[C@@H](N[*:1])C(=O)[*:2]].K.C.S.R.Y}$PEPTIDE1,PEPTIDE1,6:R3-13:R3$$$V2.0): the “Escherichia coli ATCC 25922 MIC” value in series [1] came to 0.125 mg/L. For the same compound, in series [2], the “Escherichia coli MCR-1 Af 45 MIC” value stood at 0.125 mg/L. In series [3], the “Klebsiella pneumoniae SSI3010 MIC” value was found to be 0.25 mg/L. In addition, the “Hemolysis at 0.2 g/L” value in series [4] is reported as below 1%.

Take `CC[C@H](C)[C@H](NC(=O)[C@@H](NC(=O)[C@@H]1C[C@@H](O)CN1C(=O)[C@@H](N)C(C)C)[C@@H](C)CC)C(=O)N[C@@H](Cc1ccc(O)cc1)C(=O)N[C@@H]1C(=O)N[C@@H](CC(N)=O)C(=O)N[C@@H](CCCNC(=N)N)C(=O)N[C@@H](CCN)C(=O)N[C@@H]([C@@H](C)O)C(=O)N[C@H](CCN)C(=O)N[C@@H](CCCCN)C(=O)N[C@H](C(=O)N[C@@H](CCN)C(=O)N[C@@H](CO)C(=O)N[C@@H](Cc2ccc(O)cc2)C(=O)O)CSSC1(C)C` [Example 105, Val-Hyp-Ile-Ile-Tyr-Pen-Asn-Arg-Dab-Thr-^DDab-Lys-Cys-Dab-Ser-Tyr] (HELM PEPTIDE1{V.[Hyp].I.I.Y.[Pen].N.R.[Dab].T.[NCC[C@@H](N[*:1])C(=O)[*:2]].K.C.[Dab].S.Y}$PEPTIDE1,PEPTIDE1,6:R3-13:R3$$$V2.0): the “Escherichia coli ATCC 25922 MIC” value in series [1] was determined as 0.25 mg/L. The “Escherichia coli MCR-1 Af 45 MIC” value in series [2] turned out to be 0.125 mg/L. In series [3], the “Klebsiella pneumoniae SSI3010 MIC” value was determined as 0.5 mg/L. The “Hemolysis at 0.2 g/L” value in series [4] was below 1%.

As for `CC[C@H](C)[C@H](NC(=O)[C@@H](NC(=O)[C@@H]1C[C@@H](N)CN1C(=O)[C@@H](N)C(C)C)[C@@H](C)CC)C(=O)N[C@@H](Cc1ccc(O)cc1)C(=O)N[C@@H]1C(=O)N[C@@H](CC(N)=O)C(=O)N[C@@H](CCCNC(=N)N)C(=O)N[C@@H](CCN)C(=O)N[C@@H]([C@@H](C)O)C(=O)N[C@H](CCN)C(=O)N[C@@H](CCCNC(N)=O)C(=O)N[C@H](C(=O)N[C@@H](CCN)C(=O)N[C@@H](CO)C(=O)N[C@@H](Cc2ccc(O)cc2)C(=O)O)CSSC1(C)C` [Example 106, Val-Pro((4R)NH2)-Ile-Ile-Tyr-Pen-Asn-Arg-Dab-Thr-^DDab-Cit-Cys-Dab-Ser-Tyr] (HELM PEPTIDE1{V.[N[C@@H]1C[C@@H](C(=O)[*:2])N([*:1])C1].I.I.Y.[Pen].N.R.[Dab].T.[NCC[C@@H](N[*:1])C(=O)[*:2]].[Cit].C.[Dab].S.Y}$PEPTIDE1,PEPTIDE1,6:R3-13:R3$$$V2.0), the “Escherichia coli ATCC 25922 MIC” value in series [1] amounted to 0.25 mg/L. Besides, the “Escherichia coli MCR-1 Af 45 MIC” value in series [2] is 0.25 mg/L. Moreover, the “Klebsiella pneumoniae SSI3010 MIC” value in series [3] came to 0.25 mg/L. In addition, the “Hemolysis at 0.2 g/L” value in series [4] was below 1%.

In the case of `CC[C@H](C)[C@H](NC(=O)[C@@H](NC(=O)[C@@H]1C[C@@H](O)CN1C(=O)[C@@H](N)C(C)C)[C@@H](C)CC)C(=O)N[C@@H](Cc1ccc(O)cc1)C(=O)N[C@@H]1C(=O)N[C@@H](CC(N)=O)C(=O)N[C@@H](CCCNC(=N)N)C(=O)N[C@@H](CCN)C(=O)N[C@@H]([C@@H](C)O)C(=O)N[C@H](CCN)C(=O)N[C@@H](CCCCN)C(=O)N[C@H](C(=O)N[C@@H](CO)C(=O)N[C@@H](CCCNC(=N)N)C(=O)N[C@@H](Cc2ccc(O)cc2)C(=O)O)CSSC1(C)C` [Example 107, Val-Hyp-Ile-Ile-Tyr-Pen-Asn-Arg-Dab-Thr-^DDab-Lys-Cys-Ser-Arg-Tyr] (HELM PEPTIDE1{V.[Hyp].I.I.Y.[Pen].N.R.[Dab].T.[NCC[C@@H](N[*:1])C(=O)[*:2]].K.C.S.R.Y}$PEPTIDE1,PEPTIDE1,6:R3-13:R3$$$V2.0), the “Escherichia coli ATCC 25922 MIC” value in series [1] is reported as 0.25 mg/L. Besides, the “Escherichia coli MCR-1 Af 45 MIC” value in series [2] stood at 0.25 mg/L. The “Klebsiella pneumoniae SSI3010 MIC” value in series [3] amounted to 0.5 mg/L. Also, in series [4], the “Hemolysis at 0.2 g/L” value is below 1%.
